Patent US20110112299A1, “TETRACYCLIC COMPOUND” (KYOWA HAKKO KIRIN CO., LTD., priority 2008, published 2011)

How the values were obtained:
[1] = tested on: IL-1β induced IL-6 production (A549 cells); assay: Inhibition assay for IL-1β induced IL-6 production in A549 cells (Test Example 3); format: cell-based, human; settings: at a concentration of 100 nmol/L, IL-1β stimulation, relative to dexamethasone
Description: A549 cells cultured in F-12 medium supplemented with 10% bovine serum for 3 to 5 days were transferred to a 96-well plate (50000 cells/well) and then were cultured overnight. […] After the medium was removed by suction, 60 μL of F-12 medium was added to each well, and 20 μL of the test compound diluted to 5-fold of the desired concentration with F-12 medium or 20 μL of 4 μmol/L dexamethasone was added thereto. The test compound and the dexamethasone used here were prepared beforehand by dissolving in dimethyl sulfoxide (DMSO) and diluting with F-12 medium so that the final concentration of DMSO became 0.1% v/v or lower. After 30-minute incubation under 5% CO2 atmosphere at 37° C., 20 μL of 4 nmol/L IL-1β diluted with F-12 medium was added to each well, and then incubation was performed under a 5% CO2 atmosphere at 37° C. for 12 to 18 hours. The 96-well plate was centrifuged at 300×g at 4° C. for 5 minutes, and then the culture supernatant was collected for use as a sample for IL-6 measurement. The IL-6 produced in the culture supernatant was quantified by the ELISA method (R&D Systems, product number: DY206, DouSet ELISA Development System Human IL-6), and the production inhibition rate was calculated by the following formula. […]

[2] = tested on: transcription-promoting activity via the glucocorticoid receptor (A549/MMTV-LTR cells); format: cell-based; settings: at a concentration of 300 nmol/L; relative to dexamethasone
Description: A pGL4.14 plasmid (Promega, product number: AY864928) having a cloned MMTV-LTR fragment upstream of the luciferase gene (−200 to +100 relative to the transcription initiation site) was introduced into A549 cells, and the obtained strain which is constitutively resistant to a selective antibiotic hygromycin B (A549/MMTV-LTR) was used for evaluation. The A549/MMTV-LTR cells were transferred to a 96-well plate (25000 cells/well) and were cultured overnight. […] Next, 20 μL of the test compound diluted to 5-fold of the desired concentration with F-12 medium or 20 μL of 4 μmol/L dexamethasone was added thereto, and the mixture was incubated under 5% CO2 at 37° C. for 6 hours. To each well, 50 μL of a luminescence reagent (Promega, product number: E2550 or E2650) was added, and the mixture was stirred to dissolve the cells, and the luciferase activity was measured by a plate reader (PerkinElmer, TopCount).
MMTV activity (%)=100×(luminescence amount in the presence of the compound−luminescence amount in the absence of the compound)/(luminescence amount in the presence of dexamethasone−luminescence amount in the absence of the compound)

For `CC/C(=C1\c2cc3cnn(C)c3cc2COc2ccccc21)c1cccc(NS(C)(=O)=O)c1` [Compound 2, (Z)-5-{1-[3-(methanesulfonamide)phenyl]propylidene}-1-methyl-5,11-dihydrobenzo[6,7]oxepino[4,3-f]indazole], the “IL-6 production inhibitory activity” value [1] was no less than 80% and the MMTV activity [2] was no more than 10%.
